Data published in PubChem BioAssay (NCI).
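Compound exposure: 48 hours, 5 concentrations, 96-well plates. GI50 = concentration required for 50% inhibition of growth. TGI marks complete inhibition of growth.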

What was measured:
Test in all cases: DTP human tumour cell line panel, 48 h
NCI/ADR-RES ovarian = system: NCI/ADR-RES ovarian
OVCAR-4 ovarian = system: OVCAR-4 ovarian
K-562 leukemia = system: K-562 leukemia
SK-OV-3 ovarian = system: SK-OV-3 ovarian
HCT-116 colon = system: HCT-116 colon
RXF 393 renal = system: RXF 393 renal
SK-MEL-2 melanoma = system: SK-MEL-2 melanoma
MOLT-4 leukemia = system: MOLT-4 leukemia
RPMI-8226 leukemia = system: RPMI-8226 leukemia
LOX IMVI melanoma = system: LOX IMVI melanoma

Compound	TGI (NCI/ADR-RES ovarian) [µM]	TGI (OVCAR-4 ovarian) [µM]	TGI (K-562 leukemia) [µM]	TGI (SK-OV-3 ovarian) [µM]	TGI (HCT-116 colon) [µM]	TGI (RXF 393 renal) [µM]	TGI (SK-MEL-2 melanoma) [µM]	TGI (MOLT-4 leukemia) [µM]	TGI (RPMI-8226 leukemia) [µM]	TGI (LOX IMVI melanoma) [µM]	GI50 (NCI/ADR-RES ovarian) [nM]	GI50 (OVCAR-4 ovarian) [nM]	GI50 (K-562 leukemia) [nM]	GI50 (SK-OV-3 ovarian) [µM]	GI50 (HCT-116 colon) [µM]	GI50 (RXF 393 renal) [nM]	GI50 (SK-MEL-2 melanoma) [nM]	GI50 (MOLT-4 leukemia) [µM]	GI50 (RPMI-8226 leukemia) [µM]	GI50 (LOX IMVI melanoma) [nM]
C/C(=C\c1ccccc1)n1c(=O)cc(C)n1C	> 100	> 100	> 100	> 100	> 100	> 100	> 100	> 100	> 100	> 100										
H-KIFKKFKTIIKKVWRIFGRF-NH2	9.57	5.4	> 100	7.39	> 100	5.19	6.23	> 100	> 100	> 100	2950	2130	2820	3.17	3.22	2090	2630	3.13	3.11	2980
